Measurements taken from US20170266147A1, “METHODS OF INCREASING LATENCY OF ANESTHETIC INDUCTION USING KETONE SUPPLEMENTATION” (priority 2016, published 2017).

Key:
[1] = Blood levels of βHB after anesthetic induction in Sprague-Dawley rats; format: in vivo, rat; conditions: 7 days, relative to baseline levels, p=0.0001 (ketone diet), p=2.21E−05 (ketone salt), FIG. 2
Experimental: (§1) All data are presented as the mean±standard error of the mean (SEM). The effects of compositions comprising ketone supplements on latency to anesthetic induction, as well as on blood βHB levels, were compared to control and/or baseline levels. Data analysis was performed using GRAPHPAD PRISM® v6.0a. Results were considered significant when *p<0.05, **p<0.005, ***p<0.0005. Significance was determined by unpaired t-test.
(§2) Sprague-Dawley rats were fed a standard diet, a ketone diet, or a standard diet supplemented with an oral gavage of the ketone salt βHB mineral salt for 7 days. After 7 days, anesthesia was induced in an anesthesia chamber with isoflurane gas mixed with air, and the time until anesthetic induction was measured by a blinded observer.

[2] = tested on: Sprague-Dawley rats; assay: Time until anesthetic induction (isoflurane) in Sprague-Dawley rats; format: in vivo, rat; conditions: 7 days feeding/oral gavage, relative to standard diet fed controls, p=1.32E−6 (ketone diet), p=0.336 (ketone salt), FIG. 1
Experimental: (§3) Animals were kept in pairs of 2 rats under standard laboratory conditions (12 h:12 h light-dark cycle) in climate-controlled rooms at 22.0±2.0° C. Animal treatment and measuring procedures were performed in accordance with the University of South Florida Institutional Animal Care and Use Committee (IACUC) guidelines (Protocol#00001749). All efforts were made to reduce the number of animals used.
as §1, §2

[3] = tested on: glucose transporter type 1-deficiency (G1D) syndrome mouse model; assay: Time until anesthetic induction (isoflurane) in G1D mice; format: in vivo; conditions: for time required before anesthetic induction: relative to control mice fed a standard diet, p=0.0003 (KD), p=0.0136 (KS), p=0.0003 (KE), FIG. 4
Experimental: as §3, with “groups” for “pairs”, “2-5 mice” for “2 rats”, “(Protocol#00000457).” for “(Protocol#00001749).”, “used. The rodents were put under anesthesia once a week to perform blood draws.” for “used.”
as §1, with “PRISM” for “PRISM®”
G1D mice between 3-5 months old were chronically fed a standard rodent chow diet (SD), ketogenic diet (KD) (Table 1), standard rodent chow diet mixed with 20% ketone salt (βHB mineral salt) supplementation (SD+KS), or standard diet mixed with 20% ketone ester (1,3 butanediol-acetoacetate diester) supplementation (SD+KE) for 10 weeks. After 10 weeks, anesthesia was induced in an anesthesia chamber with isoflurane gas mixed with air, and the time until anesthetic induction was measured by a blinded observer. Ketone body levels in the blood were measured immediately after induction of anesthesia with a PRECISION XTRA® blood glucose and ketone monitoring kit.

**Q.** For βHB mineral salt [ketone salt], which “blood levels of βHB after anesthetic induction” value [1] is on record?
**A.** The value was “significant increase”.

**Q.** What about the “number of seconds required before anesthetic induction” value [2] of the same compound?
**A.** The value was “significant increase”.

**Q.** What about the “delay in anesthetic induction normalized to body weight” value ([3]; 10 weeks, relative to animals fed a standard diet, p=0.0048 (KD), p=0.0338 (KS), FIG. 5) of the same compound?
**A.** Its value is “remained significant”.

**Q.** What about the “time required before anesthetic induction” value ([3]; 10 weeks) of the same compound?
**A.** Its value is “significant increases”.

**Q.** For `CC(=O)CC(=O)OCCC(C)OC(=O)CC(C)=O` (stereo not drawn) [ketone ester, 1,3 butanediol-acetoacetate diester], which “time required before anesthetic induction” value ([3]; 10 weeks) is on record?
**A.** Its value is “significant increases”.

**Q.** And the “number of seconds required before anesthetic induction” value ([3]; chronic 10 weeks, 20% in standard diet, relative to baseline levels, p=0.0035, FIG. 3)?
**A.** Its value is “significant increase”.
